Results on 15 compounds are retold here after patent publication US20250163104A1, “MACROCYCLIC IMMUNOMODULATORS” (priority 2021, published 2025).

In this experiment the target is T1, human PD-1 / PD-L1-Ig binding on Jurkat cell line over-expressing human PD-1 (Jurkat-PD-1) (Homo sapiens, UniProt Q15116).
T1 construct: expressed in transfected cells; host or cells: Jurkat
Kind of experiment: Jurkat-PD-1 Cell Binding High-Content Screening Assay (CBA). The class given is cell-based. Particulars: Jurkat-PD-1 cells, PE-labeled PD-L1-Ig 20 nM final; read-out: Jurkat HPD1_PDL1 IC50. A digest of the protocol: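 Read-out: high-content imaging of PE-tagged PD-L1-Ig bound to Jurkat cells overexpressing human PD-1, after fixation with 4% paraformaldehyde and Hoechst 33342 nuclear staining. Ligand was used at 20 nM final for 1 hour, after a 2 h compound exposure at 37° C in serum-containing DMEM.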

In general, IC50 refers to the concentration at which inhibition is half-maximal.

*1 amine or outer side, *2 acyl side, *3 side chain or, on linkers, in order; H or OH if unused. Where a SMILES comes first, the peptide text is derived from it. Bridges are numbered along the chain shown (N, C = ends). [ ]: non-standard residue; d: D form. The star is where a group is joined. ξ: configuration not given here. Phe(4-COOH) = N[C@@H](Cc1ccc(C(=O)O)cc1)C(=O)O; Ala(thiazol-5-yl) = N[C@@H](Cc1cncs1)C(=O)O; Asp(3,3-Me2) = CC(C)(C(=O)O)[C@H](N)C(=O)O; Bip = N[C@@H](Cc1ccc(-c2ccccc2)cc1)C(=O)O; Phe(3-CN) = N#Cc1cccc(C[C@H](N)C(=O)O)c1; Phe(3-Me) = Cc1cccc(C[C@H](N)C(=O)O)c1; γGlu = O=C(O)[C@H](CCC(=O)[*:2])N[*:1]; Val(3-OH) = CC(C)(O)[C@H](N)C(=O)O; 4Pal = N[C@@H](Cc1ccncc1)C(=O)O; Cha = N[C@@H](CC1CCCCC1)C(=O)O; Cit = NC(=O)NCCC[C@H](N)C(=O)O; Ile(3ξ) = CCC(C)[C@H](N)C(=O)O; Thr(3ξ) = CC(O)[C@H](N)C(=O)O; Tle = CC(C)(C)[C@H](N)C(=O)O; Carboxymethyl = O=C(O)C*; Orn = NCCC[C@H](N)C(=O)O; Pra = C#CC[C@H](N)C(=O)O; Dab = NCC[C@H](N)C(=O)O; Dap = NC[C@H](N)C(=O)O

T1 sequence (Q15116 25-288): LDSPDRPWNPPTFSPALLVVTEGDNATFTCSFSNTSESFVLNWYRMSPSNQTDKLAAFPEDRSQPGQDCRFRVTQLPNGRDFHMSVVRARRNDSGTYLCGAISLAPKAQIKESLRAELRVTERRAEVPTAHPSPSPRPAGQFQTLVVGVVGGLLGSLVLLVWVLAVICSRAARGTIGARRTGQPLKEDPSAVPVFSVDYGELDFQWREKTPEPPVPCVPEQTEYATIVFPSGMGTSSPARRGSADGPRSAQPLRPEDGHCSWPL

Consider `CC(C)C[C@H]1NC(=O)[C@H](CCCN)NC(=O)[C@H](CCC(=O)O)NC(=O)[C@H](Cc2ccc(-c3ccccc3)cc2)NC(=O)[C@H](C(C)C)NC(=O)[C@H](Cc2c[nH]c3ccccc23)NC(=O)[C@H](CC(=O)O)NC(=O)[C@H](Cc2ccc(OCC(=O)O)cc2)NC(=O)[C@H](CN)NC(=O)CSC[C@@H](C(=O)N[C@@H](C)C(N)=O)NC(=O)[C@H]([C@@H](C)O)NC(=O)[C@H](C(C)C)NC(=O)[C@H](Cc2cncs2)NC(=O)[C@H](CCN)NC1=O` [Compound 1503] ({CH2CO}-[Dap]Y(Carboxymethyl)DWV[Bip]E[Orn][dL][Dab][Ala(thiazol-5-yl)]VTCA-NH2; thioether N-14), for which the IC50 worked out at 42.8 nM.

As to `CC(C)C[C@H]1NC(=O)[C@H](CCCN)NC(=O)[C@H](CCC(=O)O)NC(=O)[C@H](Cc2ccc(-c3ccccc3)cc2)NC(=O)[C@H](C(C)C)NC(=O)[C@H](Cc2c[nH]c3ccc(C#N)cc23)NC(=O)[C@H](CC(=O)O)NC(=O)[C@H](Cc2ccc(OCC(=O)O)cc2)NC(=O)[C@H](CN)NC(=O)CSC[C@@H](C(=O)N[C@@H](C)C(N)=O)NC(=O)[C@H]([C@@H](C)O)NC(=O)[C@H](C(C)C)NC(=O)[C@H](CC2CCCCC2)NC(=O)[C@H](CCN)NC1=O` [Compound 2143], the IC50 came to 139 nM.

As to `CC(C)C[C@@H]1NC(=O)[C@H](Cc2c[nH]c3ccccc23)NC(=O)[C@H](CC(=O)O)NC(=O)[C@H](Cc2ccc(O)cc2)NC(=O)[C@H](Cc2ccccc2)NC(=O)CSC[C@@H](C(=O)N[C@@H](C)C(N)=O)NC(=O)[C@H](CO)NC(=O)[C@H](C(C)C)NC(=O)[C@H](CC(C)C)NC(=O)[C@H](CCN)NC(=O)[C@@H](CC(C)C)NC(=O)[C@H](CCCN)NC(=O)[C@H](C(C)C)NC(=O)[C@H](Cc2ccc(-c3ccccc3)cc2)NC1=O` [Compound 1069] ({CH2CO}-FYDWL[Bip]V[Orn][dL][Dab]LVSCA-NH2; thioether N-14), the IC50 amounted to 13.9 nM.

For `CCC(C)[C@@H]1NC(=O)[C@H](Cc2ccc(-c3ccccc3)cc2)NC(=O)[C@H](C(C)C)NC(=O)[C@H](Cc2cccc(C)c2)NC(=O)[C@H](CC(=O)O)NC(=O)[C@H](Cc2ccc(C(=O)O)cc2)NC(=O)[C@H](Cc2ccncc2)NC(=O)CSC[C@@H](C(=O)N[C@@H](CC(N)=O)C(N)=O)NC(=O)[C@H]([C@@H](C)O)NC(=O)[C@H](C(C)C)NC(=O)[C@H](CC2CCCCC2)NC(=O)[C@H](CCN)NC(=O)[C@@H](CC(C)C)NC(=O)[C@H](CCCN)NC1=O` (stereo partly drawn) [Compound 2299], the IC50 was determined as 14.4 nM.

Turning to `CC(C)C[C@H]1NC(=O)[C@H](CCCN)NC(=O)[C@H](C(C)C)NC(=O)[C@H](Cc2ccc(-c3ccccc3)cc2)NC(=O)[C@H](C(C)C)NC(=O)[C@H](Cc2c[nH]c3ccccc23)NC(=O)[C@H](CC(=O)O)NC(=O)[C@H](Cc2ccc(OCC(=O)O)cc2)NC(=O)[C@H](C(C)O)NC(=O)CSC[C@@H](C(N)=O)NC(=O)[C@H](C(C)O)NC(=O)[C@H](C(C)C)NC(=O)[C@H](CC2CCCCC2)NC(=O)[C@H](CCN)NC1=O` (stereo partly drawn) [Compound 2599] ({CH2CO}-[Thr(3ξ)]Y(Carboxymethyl)DWV[Bip]V[Orn][dL][Dab][Cha]V[Thr(3ξ)]C-NH2; thioether N-14), the IC50 is 17.8 nM.

Take `Cc1cccc(C[C@@H]2NC(=O)[C@H](CC(=O)O)NC(=O)[C@H](Cc3ccc(C(=O)O)cc3)NC(=O)[C@H](Cc3ccncc3)NC(=O)CSC[C@@H](C(=O)N[C@@H](CCN)C(N)=O)NC(=O)[C@H](CO)NC(=O)[C@H](C(C)(C)O)NC(=O)[C@H](CC3CCCCC3)NC(=O)[C@H](CCN)NC(=O)[C@@H](CC(C)C)NC(=O)[C@H](C(C)(C)C(=O)O)NC(=O)[C@H](Cc3ccc(OCC(=O)O)cc3)NC(=O)[C@H](Cc3ccc(-c4ccccc4)cc3)NC(=O)[C@H](Cc3ccc(OCC(=O)O)cc3)NC2=O)c1` [Compound 2072] ({CH2CO}-[4Pal][Phe(4-COOH)]D[Phe(3-Me)]Y(Carboxymethyl)[Bip]Y(Carboxymethyl)[Asp(3,3-Me2)][dL][Dab][Cha][Val(3-OH)]SC[Dab]-NH2; thioether N-14): the IC50 was found to be 19.5 nM.

Take `Cc1cccc(C[C@@H]2NC(=O)[C@H](CC(=O)O)NC(=O)[C@H](Cc3ccc(OCC(=O)O)cc3)NC(=O)[C@H](CN)NC(=O)CSC[C@@H](C(=O)N[C@@H](C)C(N)=O)NC(=O)[C@H](CCCN)NC(=O)[C@H](C(C)C)NC(=O)[C@H](CC3CCCCC3)NC(=O)[C@H](CCN)NC(=O)[C@@H](CC(C)C)NC(=O)[C@H](CCCN)NC(=O)[C@H](C(C)C)NC(=O)[C@H](Cc3ccc(-c4ccccc4)cc3)NC(=O)[C@H](C(C)C)NC2=O)c1` [Compound 1754] ({CH2CO}-[Dap]Y(Carboxymethyl)D[Phe(3-Me)]V[Bip]V[Orn][dL][Dab][Cha]V[Orn]CA-NH2; thioether N-14): the IC50 was 5.5 nM.

`Cc1cccc(C[C@@H]2NC(=O)[C@H](CC(=O)O)NC(=O)[C@H](Cc3ccc(C(=O)O)cc3)NC(=O)[C@H](Cc3ccc(OCC(=O)O)cc3)NC(=O)CSC[C@@H](C(=O)N[C@@H](C)C(N)=O)NC(=O)[C@H]([C@@H](C)O)NC(=O)[C@H](C(C)C)NC(=O)[C@H](CC3CCCCC3)NC(=O)[C@H](CCN)NC(=O)[C@@H](CC(C)C)NC(=O)[C@H](CCCN)NC(=O)[C@H](CCC(=O)O)NC(=O)[C@H](Cc3ccc(-c4ccccc4)cc3)NC(=O)[C@H](C(C)C)NC2=O)c1` [Compound 1426]: the IC50 is 23.3 nM.

`CC(C)[C@@H]1NC(=O)[C@H](Cc2c[nH]c3ccccc23)NC(=O)[C@H](CC(=O)O)NC(=O)[C@H](Cc2ccc(C(=O)O)cc2)NC(=O)[C@H](Cc2ccncc2)NC(=O)CSC[C@@H](C(=O)NCC(N)=O)NC(=O)[C@H](CO)NC(=O)[C@H](C(C)C)NC(=O)[C@H](CC2CCCCC2)NC(=O)[C@H](CCN)NC(=O)[C@@H](C)NC(=O)[C@H](CCCN)NC(=O)[C@H](CCN)NC(=O)[C@H](Cc2ccc(-c3ccccc3)cc2)NC1=O` [Compound 2544] ({CH2CO}-[4Pal][Phe(4-COOH)]DWV[Bip][Dab][Orn][dA][Dab][Cha]VSCG-NH2; thioether N-14): the IC50 is 80.6 nM.

Turning to `CC(C)C[C@H]1NC(=O)[C@H](CCCN)NC(=O)[C@H](C(C)C)NC(=O)[C@H](Cc2ccc(-c3ccccc3)cc2)NC(=O)[C@H](C(C)C)NC(=O)[C@H](Cc2c[nH]c3ccccc23)NC(=O)[C@H](CC(=O)O)NC(=O)[C@H](Cc2ccc(OCC(=O)O)cc2)NC(=O)[C@@H]2CC(N)CN2C(=O)CSC[C@@H](C(=O)N[C@@H](C)C(N)=O)NC(=O)[C@H](C(C)O)NC(=O)[C@H](C(C)C)NC(=O)[C@H](CC2CCCCC2)NC(=O)[C@H](CCN)NC1=O` (stereo partly drawn) [Compound 2523], the IC50 was 9.6 nM.

Take `CC[C@H](C)[C@@H]1NC(=O)[C@H](Cc2ccc(-c3ccccc3)cc2)NC(=O)[C@H](C(C)C)NC(=O)[C@H](Cc2c[nH]c3ccccc23)NC(=O)[C@H](CC(=O)O)NC(=O)[C@H](Cc2ccc(O)cc2)NC(=O)[C@H](CN)NC(=O)CSC[C@@H](C(=O)N[C@@H](C)C(N)=O)NC(=O)[C@H]([C@@H](C)O)NC(=O)[C@H](C(C)C)NC(=O)[C@H](CC(C)C)NC(=O)[C@H](CCN)NC(=O)[C@@H](CC(C)C)NC(=O)[C@H](CCCN)NC1=O` [Compound 1056] ({CH2CO}-[Dap]YDWV[Bip]I[Orn][dL][Dab]LVTCA-NH2; thioether N-14): the IC50 is 8.6 nM.

As for `CC(C)C[C@H]1NC(=O)[C@H](CCCN)NC(=O)[C@H](CCCNC(N)=O)NC(=O)[C@H](Cc2ccc(-c3ccccc3)cc2)NC(=O)[C@H](C(C)C)NC(=O)[C@H](Cc2c[nH]c3ccccc23)NC(=O)[C@H](CC(=O)O)NC(=O)[C@H](Cc2cccc(C#N)c2)NC(=O)[C@H](CN)NC(=O)CSC[C@@H](C(=O)N[C@@H](C)C(N)=O)NC(=O)[C@H]([C@@H](C)O)NC(=O)[C@H](C(C)C)NC(=O)[C@H](CC2CCCCC2)NC(=O)[C@H](CCN)NC1=O` [Compound 2093] ({CH2CO}-[Dap][Phe(3-CN)]DWV[Bip][Cit][Orn][dL][Dab][Cha]VTCA-NH2; thioether N-14), the IC50 is 12 nM.

For `Cc1cccc(C[C@@H]2NC(=O)[C@H](CC(=O)O)NC(=O)[C@H](Cc3ccc(C(=O)O)cc3)NC(=O)[C@H](Cc3ccncc3)NC(=O)CSC[C@@H](C(N)=O)NC(=O)[C@H]([C@@H](C)O)NC(=O)[C@H](C(C)C)NC(=O)[C@H](CC3CCCCC3)NC(=O)[C@H](CCN)NC(=O)[C@@H](CC(C)C)NC(=O)[C@H](CCCN)NC(=O)[C@H](CCC(=O)O)NC(=O)[C@H](Cc3ccc(-c4ccccc4)cc3)NC(=O)[C@H](C(C)C)NC2=O)c1` [Compound 1552] ({CH2CO}-[4Pal][Phe(4-COOH)]D[Phe(3-Me)]V[Bip]E[Orn][dL][Dab][Cha]VTC-NH2; thioether N-14), the IC50 worked out at 21.8 nM.

With `C#CC[C@H](NC(=O)CC[C@H](NC(=O)[C@@H]1CSCC(=O)N[C@@H](CN)C(=O)N[C@@H](Cc2ccc(OCC(=O)O)cc2)C(=O)N[C@@H](CC(=O)O)C(=O)N[C@@H](Cc2cccc(C)c2)C(=O)N[C@@H](Cc2ccc(OCC(=O)O)cc2)C(=O)N[C@@H](Cc2ccc(-c3ccccc3)cc2)C(=O)N[C@@H](Cc2ccc(OCC(=O)O)cc2)C(=O)N[C@@H](CCCN)C(=O)N[C@H](CC(C)C)C(=O)N[C@@H](CCN)C(=O)N[C@@H](CC2CCCCC2)C(=O)N[C@@H](C(C)C)C(=O)N[C@@H]([C@@H](C)O)C(=O)N1)C(=O)O)C(N)=O` [Compound 1804] ({CH2CO}-[Dap]Y(Carboxymethyl)D[Phe(3-Me)]Y(Carboxymethyl)[Bip]Y(Carboxymethyl)[Orn][dL][Dab][Cha]VTC[γGlu][Pra]-NH2; thioether N-14), the IC50 came to 6.6 nM.

Regarding `CCC(C)[C@@H]1NC(=O)[C@H](Cc2ccc(-c3ccccc3)cc2)NC(=O)[C@H](C(C)C)NC(=O)[C@H](Cc2cccc(C)c2)NC(=O)[C@H](CC(=O)O)NC(=O)[C@H](Cc2ccc(C(=O)O)cc2)NC(=O)[C@H](Cc2ccncc2)NC(=O)CSC[C@@H](C(N)=O)NC(=O)[C@H]([C@@H](C)O)NC(=O)[C@H](C(C)(C)C)NC(=O)[C@H](CC2CCCCC2)NC(=O)[C@H](CCN)NC(=O)[C@@H](CC(C)C)NC(=O)[C@H](CCCN)NC1=O` (stereo partly drawn) [Compound 2274] ({CH2CO}-[4Pal][Phe(4-COOH)]D[Phe(3-Me)]V[Bip][Ile(3ξ)][Orn][dL][Dab][Cha][Tle]TC-NH2; thioether N-14), the IC50 came to 36.3 nM.
